Experimental data published in patent publication US12551478B2, “Quinoline derivative having indoleamine-2,3-dioxygenase inhibitory activity” (SHENZHEN CHIPSCREEN BIOSCIENCES CO., LTD., priority 2018, dated 2026).

Target: T1, human indoleamine 2,3-dioxygenase 1 (hIDO1) (Homo sapiens, UniProt P14902)
T1 construct: up-regulate the expression of endogenous IDO1 under the induction of human IFN-γ; endogenous in cells; host or cells: HeLa cells stimulated with human IFN-γ
Experiment: Inhibitory activity test at cellular level: IFN-γ-induced HeLa cells, kynurenine colour reaction
Assay type: cell-based
Conditions: 48 hours; for inhibition at 0.1 µM: 50 ng/ml human IFN-γ, 200 μM L-tryptophan, each test compound 100 nM, read-out: hIDO1-cell base inhibition rate (%); for EC50: human IFN-γ, read-out: hIDO1-cell base EC50
Excerpt: The subject of this assay was to comprehensively evaluate different compounds on their enzymatic inhibitory activity in vitro and on cell models against human indoleamine 2,3-dioxygenase 1 (hIDO1).
In the present application, the inventors used Hela cells expressing IDO1 induced by IFN-γ as a model, to test the IDO1 inhibitory activity of the compounds at the cellular level.
HeLa cells are human cervical cancer cell lines, which can up-regulate the expression of endogenous IDO1 under the induction of human IFN-γ. By adding the substrate L-tryptophan to cell culture medium, the enzymatic catalysis product kynurenine in cell supernatant was detected. In this experiment, the cultured Hela cells were used and co-incubated with different concentrations of test compounds under stimulation of human IFN-γ for a specified period of time, and the color reaction method of enzyme product and p-dimethylaminobenzaldehyde was used to detect the effect on IDO enzyme activity of cells treated by the test compounds.
(1) Hela cells were inoculated into 96-well culture plates at an appropriate concentration (about 20,000 cells/well). […] The cells were continuously cultured for 48 hours before detection.
(2) 200 μL of the supernatant in the culture well was pipetted out, added with 40 μL of the pre-prepared 30% (w/v) trichloroacetic acid solution, and reacted at 65° C. for 20 minutes, and then centrifuged at 12000 rpm for 15 minutes.
(3) 100 μL of the supernatant after centrifugation was pipetted out, added into a 96-well flat bottom plate, then added with an equal volume of 2% p-dimethylaminobenzaldehyde in glacial acetic acid and mixed well, and stood at room temperature for 10 minutes.
(4) microplate reader (ELX800NB) was used to detect the absorbance value of each well, and the detection wavelength was 492 nm.
In addition, after the cell enzyme activity inhibition rates of test compounds with different concentration gradients were separately calculated, their cell enzyme activity half inhibition concentrations (EC50) were calculated by using EC50 calculator.
According to the above-mentioned experimental method, the compounds of the present application were subjected to IDO1 enzymatic evaluation at cytological level (the concentration of each test compound was all 100 nM).
According to the above-mentioned experimental method, the compound of the present application was subjected to hIDO1-cell base EC50 detection.

T1 sequence (P14902 whole entry): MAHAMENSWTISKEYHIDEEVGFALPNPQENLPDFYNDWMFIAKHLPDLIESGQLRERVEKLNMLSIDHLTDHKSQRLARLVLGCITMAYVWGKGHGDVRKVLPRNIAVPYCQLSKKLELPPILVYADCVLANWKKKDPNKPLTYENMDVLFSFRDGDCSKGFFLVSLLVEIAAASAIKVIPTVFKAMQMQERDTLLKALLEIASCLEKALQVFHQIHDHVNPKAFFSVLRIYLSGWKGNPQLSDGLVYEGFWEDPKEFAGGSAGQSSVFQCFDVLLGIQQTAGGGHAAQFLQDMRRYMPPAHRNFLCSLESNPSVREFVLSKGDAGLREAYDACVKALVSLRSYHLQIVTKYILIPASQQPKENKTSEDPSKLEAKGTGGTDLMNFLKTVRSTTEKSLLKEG

SMILES | inhibition at 0.1 µM | EC50
COc1cccc(NC(=O)N2CC3(CC(Oc4ccnc5ccc(F)cc45)C3)C2)c1 [Example 4, N-(3-methoxyphenyl)-6-((6-fluoroquinolin-4-yl)oxy)-2-aza-spiro[3.3]heptan-2-carboxamide] | 49% | –
COc1ccc(NC(=O)N2CC3(CC(Oc4ccnc5ccc(F)cc45)C3)C2)cc1 [Example 5, N-(4-methoxyphenyl)-6-((6-fluoroquinolin-4-yl)oxy)-2-aza-spiro[3.3]heptan-2-carboxamide] | 63% | –
O=C(c1ccc(Cl)cc1)N1CC2(CC(Oc3ccnc4ccc(F)cc34)C2)C1 [Example 6, (4-chlorophenyl)(6-((6-fluoroquinolin-4-yl)oxy)-2-aza-spiro[3.3]heptan-2-yl) methanone] | 87% | 36 nM
O=C(/C=C/c1ccc(Cl)cc1)N1CC2(CC(Oc3ccnc4ccc(F)cc34)C2)C1 [Example 7, (E)-3-(4-chlorophenyl)-1-(6-((6-fluoroquinolin-4-yl)oxy)-2-aza-spiro[3.3]heptan-2-yl)prop-2-en-1-one] | 31% | –
COC/C=C/c1ccc(NC(=O)N2CC3(CC(Oc4ccnc5ccc(F)cc45)C3)C2)cc1 [Example 10] | 90% | –
O=C(CNc1ccccc1)N1CC2(CC(Oc3ccnc4ccc(F)cc34)C2)C1 [Example 11, 1-(6-((6-fluoroquinolin-4-yl)oxy)-2-aza-cyclo[3.3]heptan-2-yl)-2-(anilino)ethyl-1-one] | 25% | –
O=C(NCc1ccc(Cl)cc1)N1CC2(CC(Oc3ccnc4ccc(F)cc34)C2)C1 [Example 15, N-(4-chlorobenzyl)-6-((6-fluoroquinolin-4-yl)oxy)-2-aza-spiro[3.3]heptan-2-carboxamide] | 18% | –
O=C(Nc1ccc(F)cc1)N1CC2(CC(Oc3ccnc4ccc(F)cc34)C2)C1 [Example 16, N-(4-fluorophenyl)-6-((6-fluoroquinolin-4-yl)oxy)-2-aza-spiro[3.3]heptan-2-carboxamide] | 85% | 33 nM
O=C(Nc1ccc(Cl)cc1)N1CC2(CCC(Nc3ccnc4ccc(F)cc34)C2)C1 (stereo not shown) [Example 19] | 61% | –
O=C(Nc1ccc(Cl)cc1)N1CC2(CC(Oc3ccnc4ccccc34)C2)C1 [Example 23, N-(4-chlorophenyl)-6-(quinolin-4-yloxy)-2-aza-spiro[3.3]heptan-2-carboxamide] | 74% | 26 nM
O=C(Nc1ccc(Cl)cc1)N1CC2(CC(Oc3cnc4ccccc4c3)C2)C1 [Example 26, N-(4-chlorophenyl)-6-(quinolin-3-yloxy)-2-aza-spiro[3.3]heptan-2-carboxamide] | 15% | –
O=C(Nc1ccc(Cl)cc1)N1CC2(CC(Oc3ncnc4ccccc34)C2)C1 [Example 29, N-(4-chlorophenyl)-6-(quinazolin-4-yloxy)-2-aza-spiro[3.3]heptan-2-carboxamide] | 10% | –
O=C(Nc1ccc(F)cc1)N1CC2C(C1)C2Oc1ccnc2ccc(F)cc12 (stereo not shown) [Example 30, N-(4-fluorophenyl)-6-((6-fluoroquinolin-4-yl)oxy)-3-aza-cyclo[3.1.0]hexan-3-carboxamide] | 11% | –
O=C(Nc1ccc(Cl)cc1)N1CC2C(C1)C2Oc1ccnc2ccc(F)cc12 (stereo not shown) [Example 31, N-(4-chlorophenyl)-6-((6-fluoroquinolin-4-yl)oxy)-3-aza-cyclo[3.1.0]hexan-3-carboxamide] | 46% | –
O=C(Nc1ccc2c(c1)CCO2)N1CC2(CC(Oc3ccnc4ccc(F)cc34)C2)C1 [Example 32, N-(2,3-dihydrobenzofuran-5-yl)-6-((6-fluoroquinolin-4-yl)oxy)-2-aza-spiro[3.3]heptan-2-carboxamide] | 44% | –
O=C(Nc1ccc2c(c1)OCCO2)N1CC2(CC(Oc3ccnc4ccc(F)cc34)C2)C1 [Example 33, N-(2,3-dihydrobenzo[b][1,4]dioxin-6-yl)-6-((6-fluoroquinolin-4-yl)oxy)-2-aza-spiro[3.3]heptan-2-carboxamide] | 10% | –
